Experimental data: EPA's ToxValDB 9.5 (doi:10.2903/j.efsa.2009.1390)
Values after ≈ are worked out from the molar mass of the structure shown.

What was measured:
Anas platyrhynchos = conditions: acute; oral; unspecified; mortality
Typhlodromus pyri = test: LR50; higher = less toxic; conditions: not reported; mortality
Bibionidae = conditions: chronic/long-term; duration: 28 days
Oryctolagus sp. = conditions: reproduction developmental; body weight
Apis mellifera = conditions: acute, mortality
Daphnia magna = conditions: chronic/long-term; duration: 21 days; reproduction
Rattus norvegicus = conditions: acute; oral; F; mortality
Canidae = conditions: chronic; duration: 1 years; oral; Dog Other; organ weight

Row | SMILES | LD50 (Anas platyrhynchos) [mg/kg-day] | LC50 (Colinus virginianus; acute, oral, diet, mortality) [mg/kg-day] | LR50 (Typhlodromus pyri) [g/ha] | LC50 (Tagia sp.; acute, duration: 14 days, mortality) [mg/kg] | NOEC (Tagia sp.; chronic/long-term, duration: 8 weeks) [mg/kg] | NOEC (Bibionidae) [mg/L] | NOAEL (Oryctolagus sp.) [mg/kg-day] | LD50 (Apis mellifera; dermal) [µg/piece] | LD50 (Apis mellifera; oral, unspecified) [µg/piece] | NOEC (Daphnia magna) [mg/L] | LD50 (Rattus norvegicus) [mg/kg-day] | NOAEL (Canidae) [mg/kg-day] | NOEC (Colinus virginianus; reproduction developmental) [mg/kg-day] | LC50 (Oncorhynchus mykiss; acute, duration: 96 hours, mortality) [µg/mL] | NOEC (Oncorhynchus mykiss; chronic/long-term, duration: 70 days, development) [mg/L]
1 | Nc1c(Cl)c(Cl)nc(C(=O)[O-])c1Cl.[K+] [Picloram potassium salt] | > 2250 | > 2200 |  |  |  |  |  |  |  |  |  |  |  |  | 
2 | Nc1c(Cl)c(Cl)nc(C(=O)O)c1Cl [Picloram] |  |  | > 23.4 | > 4480 | 0.167 | 100 | 30 | > 100 | > 74 | 6.79 | 4010 | 35 | 65 | 8.8 (≈ 36.4 µM) | 0.55
